Data: paper PMC8397297 (ACS Chemical Neuroscience, 2021)
“Also recorded” adds a separate entry of the source.

Legend:
mGAT1 = molecular target: T1, mGAT1 (Mus musculus, UniProt P31648); test: competitive MS binding assay with NO711 as unlabeled marker (LC-ESI-MS/MS); conditions: for remaining NO711 binding mGAT1: in the presence of 100 μM inhibitor
T1 construct: expressed in transfected cells; host or cells: HEK-293
How it was run: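 Competitive MS binding with unlabeled NO711 as marker, quantified by LC–ESI-MS/MS. Compounds screened at 100 μM for inhibition of marker binding.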

HepG2 cells = test: HepG2 hepatoma cell-based hepatotoxicity assay (MTS); conditions: 72 h of incubation
Experimental: To investigate the safety of compounds 2RS,4RS-39c, 50a, and 56a, a HepG2 hepatoma cell-based hepatotoxicity assay was used. Compounds were tested at six concentrations (0.1–100 μM).
Hepatotoxicity and cytotoxicity were estimated according to previously described protocols[62] using the hepatoma HepG2 (ATCC HB-8065) and human embryonic kidney HEK-293 (ATCC CRL1573) cell lines, respectively. In brief, cells were seeded in 96-well plates at a density of 0.7 × 10^4 and cultured at 37 °C in an atmosphere containing 5% CO2. Next, the compounds were added and investigated in quadruplicate at concentrations ranging from 0.1 to 100 μM for 72 h. The antiproliferative drug DX was used as the reference. The CellTiter 96 AQueous nonradioactive cell proliferation assay (MTS) purchased from Promega (Madison, WI, USA) was used for the determination of cell viability. The absorbance at 492 nm was measured using an EnSpire microplate reader (PerkinElmer, Waltham, MA, USA).

oxaliplatin-treated mice [1] = test: oxaliplatin-induced peripheral neuropathy, tactile allodynia (von Frey test); type: in vivo, mouse
Experimental: (§1) Before the in vivo tests, the test compounds were suspended in 1% Tween 80 (Baxter, Poland). The compounds were then administered intraperitoneally. […] The test compounds were administered only once daily on days 1 and 7 of oxaliplatin- or paclitaxel-induced neuropathy. In STZ-treated mice, test compounds were administered 21 days after STZ injection. Control mice used in oxaliplatin and paclitaxel NP models were injected with an appropriate amount of vehicle (0.9% saline). Oxaliplatin was purchased from Activate Scientific GmbH (Germany). Paclitaxel and STZ were purchased from Sigma-Aldrich (Poland).
(§2) For pain studies, oxaliplatin was dissolved in 5% glucose solution (Polfa Kutno, Poland). The dose of oxaliplatin used to induce peripheral neuropathy (10 mg/kg, intraperitoneal injection) was chosen on the basis of previous research[63],[64] and available literature data.[65]
(§3) The ability of the test compounds to attenuate tactile allodynia caused by oxaliplatin, paclitaxel, and STZ was assessed using the von Frey test. For this purpose, 3 h after oxaliplatin or paclitaxel and 21 days after STZ injection, the predrug paw withdrawal threshold was measured for each mouse. Then, the test compounds were administered, and 1 h later, the postdrug paw withdrawal threshold was collected for each animal. This part of the experiment aimed to establish the effect of treatment on early phase (acute) pain hypersensitivity induced by cytotoxic drugs. Additionally, in the oxaliplatin model and the paclitaxel model, to assess the effect of test compounds on late phase tactile allodynia, 7 days later, measurements of the predrug and postdrug paw withdrawal thresholds were made in a similar manner to the measurements performed during early phase neuropathy. At this stage of the experiment, there was no additional oxaliplatin/paclitaxel administration.
(§4) An electronic von Frey unit (Bioseb, France) was used to assess the mechanical nociceptive threshold (tactile allodynia) in mice. This device has a single flexible filament that applies increasing force (from 0 to 10 g) against the plantar surface of the hind paw of each mouse. In the von Frey test, the paw withdrawal response of the animals automatically turns off the stimulus, and the mechanical pressure that evokes this response is recorded. On the day of the experiment, the mice were placed individually in test compartments with a wire mesh bottom and left there for 1 h of habituation. Subsequently, to obtain baseline values, each mouse was tested 3 times alternately in each hind paw. Then, the test compounds were administered, and 1 h later, 3 additional measurements were taken and averaged to obtain the mean postdrug values for each mouse.[69]

oxaliplatin-treated mice [2] = test: oxaliplatin-induced peripheral neuropathy, cold hyperalgesia (cold plate test); type: in vivo, mouse
Experimental: as §1, §2
A cold plate apparatus (hot/cold plate, Bioseb, France) set at 2.5 °C was used to assess the effect of treatment on cold hyperalgesia in oxaliplatin-treated mice. The cold plate test was conducted immediately after the von Frey test. Three hours after oxaliplatin administration, the animals were placed on a cold plate apparatus, and predrug latencies to pain reaction (i.e., lifting, biting, shaking of hind paws, jumping, movement deficits, or writhing response) were collected. Finally, the test compounds were injected, and 1 h later, the postdrug latencies to pain reaction were measured.

paclitaxel-treated mice = test: paclitaxel-induced peripheral neuropathy, tactile allodynia (von Frey test); type: in vivo, mouse
Experimental: as §1
Doses of both paclitaxel and STZ used for the induction of neuropathy were selected based on our previous research.[66],[67] To induce neuropathy, paclitaxel was used at a dose of 18 mg/kg. It was prepared by dissolving in ethanol (100% (v/v); Polskie Odczynniki Chemiczne, Gliwice, Poland) at 10% of the final desired volume and vortexed for 2 min. An equal volume of Cremophor EL (10% of the final volume) was then added, and the mixture was vortexed for the next 10 min. Prior to injection, ice-cold physiological saline (80% of the final volume) was added to make up a final volume and the solution was maintained on ice during dosing.[66] To induce type I diabetes, mice were intraperitoneally injected with STZ (a single injection of STZ, 200 mg/kg) dissolved in 0.1 N citrate buffer. Age-matched control mice received an equal volume of citrate buffer. Blood glucose level was measured 1 day before (referred to as “day 0”) and repeatedly 1, 2, and 3 weeks after STZ injection using a blood glucose monitoring system (Accu-Chek Active, Roche, France). Blood samples for measurement of glucose concentration were obtained from the tail vein of the mice. The animals were considered as diabetic when their blood glucose concentration exceeded 300 mg/dL,[68] and only these mice (diabetic mice) were used in subsequent pain tests.[67]
as §3, §4

STZ-treated mice [3] = test: diabetic STZ-induced peripheral neuropathy, tactile allodynia (von Frey test); type: in vivo, mouse; conditions: 21 days after STZ, i.p., doses 10 and 30 mg/kg
Experimental: as §1
Doses of both paclitaxel and STZ used for the induction of neuropathy were selected based on our previous research.[66],[67] To induce neuropathy, paclitaxel was used at a dose of 18 mg/kg. […] Blood glucose level was measured 1 day before (referred to as “day 0”) and repeatedly 1, 2, and 3 weeks after STZ injection using a blood glucose monitoring system (Accu-Chek Active, Roche, France). […]
The ability of the test compounds to attenuate tactile allodynia caused by oxaliplatin, paclitaxel, and STZ was assessed using the von Frey test. For this purpose, 3 h after oxaliplatin or paclitaxel and 21 days after STZ injection, the predrug paw withdrawal threshold was measured for each mouse. […]

STZ-treated mice [4] = test: diabetic STZ-induced peripheral neuropathy, heat hyperalgesia (hot plate test); type: in vivo, mouse; conditions: i.p.
Experimental: as §1
Doses of both paclitaxel and STZ used for the induction of neuropathy were selected based on our previous research.[66],[67] To induce neuropathy, paclitaxel was used at a dose of 18 mg/kg. It was prepared by dissolving in ethanol (100% (v/v); Polskie Odczynniki Chemiczne, Gliwice, Poland) at 10% of the final desired volume and vortexed for 2 min. […] Blood glucose level was measured 1 day before (referred to as “day 0”) and repeatedly 1, 2, and 3 weeks after STZ injection using a blood glucose monitoring system (Accu-Chek Active, Roche, France). […]
Thermal (heat) nociceptive threshold was assessed in the hot plate test as previously described.[67] […] The time until the animal licked its hind paws or jumped was recorded by means of a stop-watch. […]

[5] = early (acute) phase of oxaliplatin-induced neuropathy, i.p., 50a and 56a at both doses (10 and 30 mg/kg)
[6] = early phase of oxaliplatin-induced neuropathy, i.p.
[7] = day 7 after paclitaxel injection, 30 mg/kg i.p., 30 mg/kg
[8] = day 7 after paclitaxel injection, lower dose (10 mg/kg) i.p.
[9] = day of paclitaxel administration, 10 and 30 mg/kg i.p.

Structure (SMILES)	remaining NO711 binding mGAT1 (mGAT1)	concentration with statistically significant (p < 0.0001) decrease in HepG2 cell viability (HepG2 cells; tested 0.1–100 μM) [µM]	effect on mechanical nociceptive threshold (tactile allodynia), von Frey test (oxaliplatin-treated mice [1]; [5])	effect on cold hyperalgesia, cold plate test (oxaliplatin-treated mice [2]; [6])	Ki (mGAT1; MS binding assay, read-out: pKi ± SEM mGAT1 (converted)) [µM]	effect on mechanical nociceptive threshold, von Frey test (paclitaxel-treated mice; [7])	effect on mechanical nociceptive threshold, von Frey test (paclitaxel-treated mice; [8])	effect on mechanical nociceptive threshold, von Frey test (paclitaxel-treated mice; [9])	effect on mechanical nociceptive threshold (tactile allodynia), von Frey test (STZ-treated mice [3])	effect on heat nociceptive threshold, hot plate test (STZ-treated mice [4])	hepatotoxicity in HepG2 cells (HepG2 cells; concentrations up to 25 μM)	effect on mechanical nociceptive threshold (tactile allodynia), von Frey test (oxaliplatin-treated mice [1]; late phase (7 days after oxaliplatin), 10 mg/kg i.p., 10 mg/kg)	effect on cold hyperalgesia, cold plate test (oxaliplatin-treated mice [2]; early (acute) phase of oxaliplatin-induced neuropathy, 30 mg/kg i.p., 30 mg/kg)
Cc1ccc(CNC(=O)[C@@H](C[C@@H](C)O)N(C)CCC=C2c3ccccc3CCc3ccccc32)cc1 (relative stereo) [Compound 2RS,4RS-39c, 2-((3-(10,11-Dihydro-5H-dibenzo[a,d][7]annulen-5-ylidene)propyl)(methyl)amino)-4-hydroxy-N-(4-methylbenzyl)pentanamide]	100 μM: 69%	25	not effective	not effective	–	–	–	–	–	–	–	–	–
CN(CCON=C(c1ccccc1)c1ccccc1)C(CCN)C(=O)NCc1ccccc1Cl (stereo not shown) [Compound 50a, 4-Amino-N-[(2-chlorophenyl)methyl]-2-[(2-{[(diphenylmethylidene)amino]oxy}ethyl)(methyl)amino]butanamide]	–	–	significantly elevated the pain threshold for mechanical stimulation; also recorded: showed antiallodynic properties	not effective	33.1	elevated mechanical nociceptive threshold; also recorded: able to reduce tactile allodynia	not effective	neither 50a nor 56a at doses 10 and 30 mg/kg was able to elevate the mechanical nociceptive threshold	effective only at the dose of 30 mg/kg	neither 50a nor 56a was effective	–	–	–
CN(CCC=C1c2ccccc2CCc2ccccc21)C(CO)C(=O)NCc1ccccc1 (stereo not shown) [Compound 56a, N-Benzyl-2-((3-(10,11-dihydro-5H-dibenzo[a,d][7]annulen-5-ylidene)propyl)(methyl)amino)-3-hydroxypropanamide]	100 μM: 68%	–	reduced tactile allodynia; also recorded: showed antiallodynic properties	–	–	elevated mechanical nociceptive threshold; also recorded: able to reduce tactile allodynia	not effective	neither 50a nor 56a at doses 10 and 30 mg/kg was able to elevate the mechanical nociceptive threshold	effective only at the dose of 30 mg/kg	neither 50a nor 56a was effective	did not induce significant hepatotoxicity	showed antiallodynic properties in the acute and late phases	reduced cold hyperalgesia in the acute phase
